# Assay results published in US20130216631A1, “TARGETED PERFORMANCE OF HYPOHALITE COMPOSITIONS THEREOF” (The Clorox Company, priority 2012, published 2013).
# Assay: Percentage of initial hypochlorite remaining over time after mixing oxidant and reductant
# Assay type: physicochemical
# Conditions: any pH below 12
# Source text: The amount of available halogen oxidant in the composition may be determined by placing samples of the composition into about 50 milliliters of distilled water, followed by addition of about 10 milliliters of a 10 wt % solution of potassium iodide and addition of about 10 milliliters of a 10 volume % solution of sulfuric acid, the resulting mixture being well stirred. The resulting yellow to brown solution, whose color is the result of oxidation of […] (I^−) to molecular iodine (I2), is then volumetrically titrated to an essentially colorless endpoint by addition of standardized 0.1 Molar sodium thiosulfate (Na2S2O3) titrant. […] Stability results are then expressed by repeated assays over time using identically prepared samples resulting from the same composition, normalized to 100 percent representative of the starting available chlorine measured initially.
# Alternatively, at lower concentrations of hypochlorite, generally below about 2,000 ppm or 0.2 wt %, spectroscopic measurement of the absorption of aqueous solutions may be used to monitor the concentration, and resulting changes, of the hypochlorous acid species in solution. […] By use of controls, the relative level of hypochlorite can then be monitored and calculated by measuring absorbance of solutions by means of a suitable instrument, such as a spectrophotometer. […]
smiles,measurement,value
"O=C(O)CN(CCN(CC(=O)O)CC(=O)O)CC(=O)O [EDTA, ethylene diamine tetra-acetic acid]",reaction of reductant with hypochlorite (quench rate),reacts almost instantly
